Measured values from patent publication US6355799B1, “Substituted benzene compounds, process for their preparation, and herbicidal and defoliant compositions containing them” (ISK Americas Incorporated, priority 1997, dated 2002).

Experiments:
Format in all cases: in vivo
[1] = tested on: field corn (Zea mays L., var. Dekalb 535, CORN); test: Pre-emerge test, crop safety; details: pre-emerge, 14 days after application, scale 0-100
Method in brief: (§1)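 Visual ratings on a 0-100 scale (0 no damage, 100 all plants dead) were taken at 14 days after treatment. Rates of 15-1000 g ai/ha in acetone, 187 l/ha, were sprayed onto soil one day after planting (pre-emerge) or onto 2-3 leaf plants with 0.25% v/v surfactant (post-emerge).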

[2] = tested on: upland rice (Oryza sp., var. Tebonnet, RICE); test: Pre-emerge test, crop safety; details: pre-emerge, 14 days after application, scale 0-100
Method in brief: as §1

[3] = tested on: field corn (Zea mays L., var. Dekalb 535, CORN); test: Post-emerge test, crop safety; details: post-emerge, 14 days after application, rating scale 0-100
Method in brief: (§2)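 Rating: 0–100 visual injury, 14 DAA. Application: acetone, 187 l/ha, 15–1000 g ai/ha, flat-fan track sprayer with nozzle 40–45 cm above soil or canopy. Post-emerge runs used 0.25% v/v surfactant on 2–3 leaf plants.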

[4] = tested on: upland rice (Oryza sp., var. Tebonnet, RICE); test: Post-emerge test, crop safety; details: post-emerge, 14 days after application, rating scale 0-100
Method in brief: as §2

[5] = tested on: sicklepod (Cassia obtusifolia, CASOB); test: Pre-emerge test, greenhouse herbicide activity screening; details: pre-emerge, 14 days after application, scale 0-100
Method in brief: (§3)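 Compounds in acetone were track-sprayed at 15–1000 g ai/ha: pre-emergence onto soil sown the previous day, then top-watered to incorporate and later bottom-watered; post-emergence onto 2–3 leaf plants with 0.25% v/v surfactant, bottom-watered only. Ratings on a 0–100 phytotoxicity scale were taken at day 14.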

[6] = tested on: large crabgrass (Digitaria sanguinalis, DIGSA); test: as above; details: pre-emerge, 14 days after application, scale 0-100
Method in brief: as §3

[7] = tested on: lambsquarters (Chenopodium album, CHEAL); test: as above; details: pre-emerge, 14 days after application, scale 0-100
Method in brief: as §3

[8] = tested on: barnyardgrass (Echinochloa crus-galli, ECHCG); test: as above; details: pre-emerge, 14 days after application, scale 0-100
Method in brief: as §3

[9] = tested on: johnsongrass (Sorghum halepense, SORHA); test: as above; details: pre-emerge, 14 days after application, scale 0-100
Method in brief: as §3

[10] = tested on: green foxtail (Setaria viridis, SETVI); test: as above; details: pre-emerge, 14 days after application, scale 0-100
Method in brief: as §3

[11] = tested on: velvetleaf (Abutilon theophrasti, ABUTH); test: as above; details: pre-emerge, 14 days after application, scale 0-100
Method in brief: as §3

[12] = tested on: ivyleaf morningglory (Ipomoea hederacea, IPOHE); test: as above; details: pre-emerge, 14 days after application, scale 0-100
Method in brief: as §3

[13] = tested on: redroot pigweed (Amaranthus retroflexus, AMARE); test: as above; details: pre-emerge, 14 days after application, scale 0-100
Method in brief: as §2

[14] = tested on: sicklepod (Cassia obtusifolia, CASOB); test: Post-emerge test, greenhouse herbicide activity screening; details: post-emerge, 14 days after application, rating scale 0-100
Method in brief: (§4)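 Compounds in acetone were track-sprayed at 187 l/ha, 15–1000 g ai/ha, onto sandy loam pots. Pre-emerge seeds were sown one day before spraying, with surface watering afterwards. Post-emerge plants were at the 2–3 leaf stage and sprayed with 0.25% v/v non-ionic surfactant. Injury was rated 0–100 at 14 days.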

[15] = tested on: large crabgrass (Digitaria sanguinalis, DIGSA); test: as above; details: post-emerge, 14 days after application, rating scale 0-100
Method in brief: as §4

[16] = tested on: lambsquarters (Chenopodium album, CHEAL); test: as above; details: post-emerge, 14 days after application, rating scale 0-100
Method in brief: as §4

[17] = tested on: barnyardgrass (Echinochloa crus-galli, ECHCG); test: as above; details: post-emerge, 14 days after application, rating scale 0-100
Method in brief: as §4

[18] = tested on: redroot pigweed (Amaranthus retroflexus, AMARE); test: as above; details: post-emerge, 14 days after application, rating scale 0-100
Method in brief: as §4

[19] = tested on: johnsongrass (Sorghum halepense, SORHA); test: as above; details: post-emerge, 14 days after application, rating scale 0-100
Method in brief: as §4

[20] = tested on: green foxtail (Setaria viridis, SETVI); test: as above; details: post-emerge, 14 days after application, rating scale 0-100
Method in brief: as §4

[21] = tested on: common ragweed (Ambrosia artemisizfolia L., AMBEL); test: as above; details: post-emerge, 14 days after application, rating scale 0-100
Method in brief: as §4

[22] = tested on: velvetleaf (Abutilon theophrasti, ABUTH); test: as above; details: post-emerge, 14 days after application, rating scale 0-100
Method in brief: as §4

[23] = tested on: ivyleaf morningglory (Ipomoea hederacea, IPOHE); test: as above; details: post-emerge, 14 days after application, rating scale 0-100
Method in brief: as §4

COc1c(Cl)cc(F)c(-n2c(=O)cc(C(F)(F)F)n(C)c2=O)c1NC(=O)c1ccc2cccc(F)c2c1 [2-161]
phytotoxicity rating CORN (crop damage) ([1]; 63 g ai/ha): 0
phytotoxicity rating CORN (crop damage) ([1]; 250 g ai/ha): 0
phytotoxicity rating RICE (crop damage) ([2]; 63 g ai/ha): 0
phytotoxicity rating RICE (crop damage) ([2]; 250 g ai/ha): 40
CORN phytotoxicity rating (crop damage) ([3]; 63 g ai/ha): 0
CORN phytotoxicity rating (crop damage) ([3]; 250 g ai/ha): 20
RICE phytotoxicity rating (crop damage) ([4]; 63 g ai/ha): 20
RICE phytotoxicity rating (crop damage) ([4]; 250 g ai/ha): 70
phytotoxicity rating CASOB ([5]; 63 g ai/ha): 0
phytotoxicity rating CASOB ([5]; 250 g ai/ha): 50
phytotoxicity rating DIGSA ([6]; 63 g ai/ha): 95
phytotoxicity rating DIGSA ([6]; 250 g ai/ha): 100
phytotoxicity rating CHEAL ([7]; 63 g ai/ha): 100
phytotoxicity rating CHEAL ([7]; 250 g ai/ha): 100
phytotoxicity rating ECHCG ([8]; 63 g ai/ha): 90
phytotoxicity rating ECHCG ([8]; 250 g ai/ha): 99
phytotoxicity rating SORHA ([9]; 63 g ai/ha): 0
phytotoxicity rating SORHA ([9]; 250 g ai/ha): 30
phytotoxicity rating SETVI ([10]; 63 g ai/ha): 100
phytotoxicity rating SETVI ([10]; 250 g ai/ha): 100
phytotoxicity rating ABUTH ([11]; 63 g ai/ha): 100
phytotoxicity rating ABUTH ([11]; 250 g ai/ha): 100
phytotoxicity rating IPOHE ([12]; 63 g ai/ha): 20
phytotoxicity rating IPOHE ([12]; 250 g ai/ha): 90
phytotoxicity rating AMARE ([13]; 63 g ai/ha): 100
phytotoxicity rating AMARE ([13]; 250 g ai/ha): 100
CASOB phytotoxicity rating ([14]; 63 g ai/ha): 100
CASOB phytotoxicity rating ([14]; 250 g ai/ha): 100
DIGSA phytotoxicity rating ([15]; 63 g ai/ha): 0
DIGSA phytotoxicity rating ([15]; 250 g ai/ha): 50
CHEAL phytotoxicity rating ([16]; 63 g ai/ha): 100
CHEAL phytotoxicity rating ([16]; 250 g ai/ha): 100
ECHCG phytotoxicity rating ([17]; 63 g ai/ha): 20
ECHCG phytotoxicity rating ([17]; 250 g ai/ha): 60
AMARE phytotoxicity rating ([18]; 63 g ai/ha): 100
AMARE phytotoxicity rating ([18]; 250 g ai/ha): 100
SORHA phytotoxicity rating ([19]; 63 g ai/ha): 0
SORHA phytotoxicity rating ([19]; 250 g ai/ha): 30
SETVI phytotoxicity rating ([20]; 63 g ai/ha): 0
SETVI phytotoxicity rating ([20]; 250 g ai/ha): 20
AMBEL phytotoxicity rating ([21]; 63 g ai/ha): 30
AMBEL phytotoxicity rating ([21]; 250 g ai/ha): 100
ABUTH phytotoxicity rating ([22]; 63 g ai/ha): 100
ABUTH phytotoxicity rating ([22]; 250 g ai/ha): 100
IPOHE phytotoxicity rating ([23]; 63 g ai/ha): 100
IPOHE phytotoxicity rating ([23]; 250 g ai/ha): 100

CCSCC(=O)Nc1c(OC)c(Cl)cc(F)c1-n1c(=O)cc(C(F)(F)F)n(C)c1=O [2-172]
phytotoxicity rating CORN (crop damage) ([1]; 63 g ai/ha): 0
phytotoxicity rating CORN (crop damage) ([1]; 250 g ai/ha): 10
phytotoxicity rating RICE (crop damage) ([2]; 63 g ai/ha): 10
phytotoxicity rating RICE (crop damage) ([2]; 250 g ai/ha): 50
CORN phytotoxicity rating (crop damage) ([3]; 63 g ai/ha): 5
CORN phytotoxicity rating (crop damage) ([3]; 250 g ai/ha): 10
RICE phytotoxicity rating (crop damage) ([4]; 63 g ai/ha): 0
RICE phytotoxicity rating (crop damage) ([4]; 250 g ai/ha): 10
phytotoxicity rating CASOB ([5]; 63 g ai/ha): 20
phytotoxicity rating CASOB ([5]; 250 g ai/ha): 80
phytotoxicity rating DIGSA ([6]; 63 g ai/ha): 20
phytotoxicity rating DIGSA ([6]; 250 g ai/ha): 100
phytotoxicity rating CHEAL ([7]; 63 g ai/ha): 30
phytotoxicity rating CHEAL ([7]; 250 g ai/ha): 100
phytotoxicity rating ECHCG ([8]; 63 g ai/ha): 0
phytotoxicity rating ECHCG ([8]; 250 g ai/ha): 60
phytotoxicity rating SORHA ([9]; 63 g ai/ha): 0
phytotoxicity rating SORHA ([9]; 250 g ai/ha): 40
phytotoxicity rating SETVI ([10]; 63 g ai/ha): 20
phytotoxicity rating SETVI ([10]; 250 g ai/ha): 65
phytotoxicity rating ABUTH ([11]; 63 g ai/ha): 90
phytotoxicity rating ABUTH ([11]; 250 g ai/ha): 100
phytotoxicity rating IPOHE ([12]; 63 g ai/ha): 60
phytotoxicity rating IPOHE ([12]; 250 g ai/ha): 95
phytotoxicity rating AMARE ([13]; 63 g ai/ha): 70
phytotoxicity rating AMARE ([13]; 250 g ai/ha): 100
CASOB phytotoxicity rating ([14]; 63 g ai/ha): 50
CASOB phytotoxicity rating ([14]; 250 g ai/ha): 90
DIGSA phytotoxicity rating ([15]; 63 g ai/ha): 0
DIGSA phytotoxicity rating ([15]; 250 g ai/ha): 0
CHEAL phytotoxicity rating ([16]; 63 g ai/ha): 35
CHEAL phytotoxicity rating ([16]; 250 g ai/ha): 60
ECHCG phytotoxicity rating ([17]; 63 g ai/ha): 0
ECHCG phytotoxicity rating ([17]; 250 g ai/ha): 0
AMARE phytotoxicity rating ([18]; 63 g ai/ha): 60
AMARE phytotoxicity rating ([18]; 250 g ai/ha): 60
SORHA phytotoxicity rating ([19]; 63 g ai/ha): 0
SORHA phytotoxicity rating ([19]; 250 g ai/ha): 0
SETVI phytotoxicity rating ([20]; 63 g ai/ha): 0
SETVI phytotoxicity rating ([20]; 250 g ai/ha): 10
AMBEL phytotoxicity rating ([21]; 63 g ai/ha): 30
AMBEL phytotoxicity rating ([21]; 250 g ai/ha): 80
ABUTH phytotoxicity rating ([22]; 63 g ai/ha): 60
ABUTH phytotoxicity rating ([22]; 250 g ai/ha): 100
IPOHE phytotoxicity rating ([23]; 63 g ai/ha): 90
IPOHE phytotoxicity rating ([23]; 250 g ai/ha): 100
